We go through 28 compounds from US20110190336A1, “AZABENZIMIDAZOLONES” (CARA THERAPEUTICS, INC., priority 2008, published 2011).

This assay deals with T1, human DP2 receptor (Homo sapiens, UniProt Q9Y5Y4).
T1 construct: expressed in transfected cells; host or cells: CHO-K1 FLP-In (Invitrogen, catalog no. R758-07), stably transfected
T1 sequence (Q9Y5Y4 1-395): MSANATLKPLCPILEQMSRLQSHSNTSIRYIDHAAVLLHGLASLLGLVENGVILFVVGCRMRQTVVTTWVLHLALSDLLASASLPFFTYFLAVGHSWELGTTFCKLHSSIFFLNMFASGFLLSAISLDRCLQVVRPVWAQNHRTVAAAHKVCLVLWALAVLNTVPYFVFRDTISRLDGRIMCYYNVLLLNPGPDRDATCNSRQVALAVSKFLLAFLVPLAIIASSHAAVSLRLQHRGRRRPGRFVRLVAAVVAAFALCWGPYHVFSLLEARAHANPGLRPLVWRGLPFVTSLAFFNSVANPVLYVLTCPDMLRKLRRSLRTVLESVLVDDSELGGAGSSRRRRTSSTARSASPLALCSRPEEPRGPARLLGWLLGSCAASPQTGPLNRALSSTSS
Nature of the assay: Prostaglandin D2 binding inhibition assay (scintillation proximity assay, 3H PGD2, membranes of transfected CHO cells). The note with it: SPA, 5.5 nM 3H PGD2, CHO-K1 FLP-In human DP2 membranes; upper limit determinable 30 μM; read-out: IC50 ranges for inhibition of PGD2 binding to human DP2. In outline:
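Membranes (5 μg) from CHO-K1 cells stably expressing human DP2 were mixed with WGA SPA beads and 5.5 nM 3H PGD2 in Tris buffer with 10 mM MgCl2, 100 mM NaCl, 0.1% BSA, plus compound. After 60 min at room temperature, CPM were read; IC50 from two-parameter nonlinear regression.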
For orientation: SPA uses beads or plates that emit light when radiolabelled molecules are held near them.
With `O=C(O)Cn1c(=O)n(C2CCN(S(=O)(=O)c3ccccc3)CC2)c2ncccc21` [Compound 79, 2-(2-oxo-3-(1-(phenylsulfonyl)piperidin-4-yl)-2,3-dihydro-1H-imidazo[4,5-b]pyridin-1-yl)acetic acid], the IC50 was 1000 to 10000 nM. The same measure for `O=C(O)Cn1c(=O)n(C2CCN(S(=O)(=O)c3ccc(Cl)s3)CC2)c2ncccc21` [Compound 80, 2-(3-(1-(5-chlorothiophen-2-yl-sulfonyl)piperidin-4-yl)-2-oxo-2,3-dihydro-1H-imidazo[4,5-b]pyridin-1-yl)acetic acid]: 1000 to 10000 nM; for `O=C(O)Cn1c(=O)n(C2CCN(S(=O)(=O)c3ccc(-c4ccccc4)cc3)CC2)c2ncccc21` [Compound 81, 2-(3-(1-(biphenyl-4-ylsulfonyl)piperidin-4-yl)-2-oxo-2,3-dihydro-1H-imidazo[4,5-b]pyridin-1-yl)acetic acid]: 1000 to 10000 nM. Regarding `O=C(O)Cn1c(=O)n(C2CCN(S(=O)(=O)c3cc(Cl)ccc3Cl)CC2)c2ncccc21` [Compound 82, 2-(3-(1-(2,5-dichlorophenylsulfonyl)piperidin-4-yl)-2-oxo-2,3-dihydro-1H-imidazo[4,5-b]pyridin-1-yl)acetic acid], the IC50 is less than 1000 nM. The same measure for `O=C(O)Cn1c(=O)n(C2CCN(S(=O)(=O)c3cc(F)c(Br)cc3F)CC2)c2ncccc21` [Compound 83, 2-(3-(1-(4-bromo-2,5-difluorophenyl-sulfonyl)piperidin-4-yl)-2-oxo-2,3-dihydro-1H-imidazo[4,5-b]pyridin-1-yl)acetic acid]: less than 1000 nM; for `O=C(O)Cn1c(=O)n(C2CCN(S(=O)(=O)c3cc(Cl)cc(Cl)c3)CC2)c2ncccc21` [Compound 84, 2-(3-(1-(3,5-dichlorophenyl-sulfonyl)piperidin-4-yl)-2-oxo-2,3-dihydro-1H-imidazo[4,5-b]pyridin-1-yl)acetic acid]: 1000 to 10000 nM; for `O=C(O)Cn1c(=O)n(C2CCN(S(=O)(=O)c3ccccc3C(F)(F)F)CC2)c2ncccc21` [Compound 85, 2-(2-oxo-3-(1-(2-(trifluoromethyl)phenylsulfonyl)piperidin-4-yl)-2,3-dihydro-1H-imidazo[4,5-b]pyridin-1-yl)acetic acid]: less than 1000 nM.

On to `O=C(O)Cn1c(=O)n(C2CCN(S(=O)(=O)c3cc(Cl)c(F)cc3F)CC2)c2ncccc21` [Compound 86, 2-(3-(1-(5-chloro-2,4-difluorophenyl-sulfonyl)piperidin-4-yl)-2-oxo-2,3-dihydro-1H-imidazo[4,5-b]pyridin-1-yl)acetic acid], for which the IC50 is less than 1000 nM. With `O=C(O)Cn1c(=O)n(C2CCN(S(=O)(=O)c3ccc(Br)cc3F)CC2)c2ncccc21` [Compound 87, 2-(3-(1-(4-bromo-2-fluorophenyl-sulfonyl)piperidin-4-yl)-2-oxo-2,3-dihydro-1H-imidazo[4,5-b]pyridin-1-yl)acetic acid] the figure was less than 1000 nM; with `O=C(O)Cn1c(=O)n(C2CCN(S(=O)(=O)c3ccc(F)c(Cl)c3)CC2)c2ncccc21` [Compound 88, 2-(3-(1-(3-chloro-4-fluorophenyl-sulfonyl)piperidin-4-yl)-2-oxo-2,3-dihydro-1H-imidazo[4,5-b]pyridin-1-yl)acetic acid], 1000 to 10000 nM; with `COc1ccc(S(=O)(=O)N2CCC(n3c(=O)n(CC(=O)O)c4cccnc43)CC2)cc1` [Compound 89, 2-(3-(1-(4-methoxyphenylsulfonyl)piperidin-4-yl)-2-oxo-2,3-dihydro-1H-imidazo[4,5-b]pyridin-1-yl)acetic acid], 1000 to 10000 nM. With `CS(=O)(=O)c1ccc(S(=O)(=O)N2CCC(n3c(=O)n(CC(=O)O)c4cccnc43)CC2)cc1` [Compound 90, 2-(3-(1-(4-(methylsulfonyl)phenyl-sulfonyl)piperidin-4-yl)-2-oxo-2,3-dihydro-1H-imidazo[4,5-b]pyridin-1-yl)acetic acid] the figure was more than 30000 nM; with `O=C(O)Cn1c(=O)n(C2CCN(S(=O)(=O)c3cc(F)c(Cl)cc3F)CC2)c2ncccc21` [Compound 91, 2-(3-(1-(4-chloro-2,5-difluoro-phenylsulfonyl)piperidin-4-yl)-2-oxo-2,3-dihydro-1H-imidazo[4,5-b]pyridin-1-yl)acetic acid], less than 1000 nM. With `O=C(O)Cn1c(=O)n(C2CCN(S(=O)(=O)c3cc(F)c(F)cc3F)CC2)c2ncccc21` [Compound 92, 2-(2-oxo-3-(1-(2,4,5-trifluoro-phenylsulfonyl)piperidin-4-yl)-2,3-dihydro-1H-imidazo[4,5-b]pyridin-1-yl)acetic acid] the figure was 1000 to 10000 nM; with `O=C(O)Cn1c(=O)n(C2CCN(S(=O)(=O)c3ccc(F)cc3F)CC2)c2ncccc21` [Compound 93, 2-(3-(1-(2,4-difluorophenyl-sulfonyl)piperidin-4-yl)-2-oxo-2,3-dihydro-1H-imidazo[4,5-b]pyridin-1-yl)acetic acid], less than 1000 nM. As for `Cc1ccccc1S(=O)(=O)N1CCC(n2c(=O)n(CC(=O)O)c3cccnc32)CC1` [Compound 94, 2-(2-oxo-3-(1-(o-tolylsulfonyl)piperidin-4-yl)-2,3-dihydro-1H-imidazo[4,5-b]pyridin-1-yl)acetic acid], the half-maximal inhibitory concentration (IC50) was less than 1000 nM. The same measure for `Cc1cc(S(=O)(=O)N2CCC(n3c(=O)n(CC(=O)O)c4cccnc43)CC2)ccc1F` [Compound 95, 2-(3-(1-(4-fluoro-3-methylphenylsulfonyl)piperidin-4-yl)-2-oxo-2,3-dihydro-1H-imidazo[4,5-b]pyridin-1-yl)acetic acid]: 1000 to 10000 nM; for `Cc1c(F)cccc1S(=O)(=O)N1CCC(n2c(=O)n(CC(=O)O)c3cccnc32)CC1` [Compound 96, 2-(3-(1-(3-fluoro-2-methylphenylsulfonyl)piperidin-4-yl)-2-oxo-2,3-dihydro-1H-imidazo[4,5-b]pyridin-1-yl)acetic acid]: less than 1000 nM. With `COc1ccccc1S(=O)(=O)N1CCC(n2c(=O)n(CC(=O)O)c3cccnc32)CC1` [Compound 97, 2-(3-(1-(2-methoxyphenylsulfonyl)piperidin-4-yl)-2-oxo-2,3-dihydro-1H-imidazo[4,5-b]pyridin-1-yl)acetic acid] the figure was 1000 to 10000 nM; with `CCCCOc1ccc(S(=O)(=O)N2CCC(n3c(=O)n(CC(=O)O)c4cccnc43)CC2)cc1` [Compound 98, 2-(3-(1-(4-butoxyphenylsulfonyl)piperidin-4-yl)-2-oxo-2,3-dihydro-1H-imidazo[4,5-b]pyridin-1-yl)acetic acid], less than 1000 nM; with `CCOc1ccc(S(=O)(=O)N2CCC(n3c(=O)n(CC(=O)O)c4cccnc43)CC2)cc1` [Compound 99, 2-(3-(1-(4-ethoxyphenylsulfonyl)piperidin-4-yl)-2-oxo-2,3-dihydro-1H-imidazo[4,5-b]pyridin-1-yl)acetic acid], 1000 to 10000 nM. With `CS(=O)(=O)c1ccccc1S(=O)(=O)N1CC[C@@H](n2c(=O)n(CC(=O)O)c3cccnc32)C1` [Compound 100, (R)-2-(3-(1-(2-(methylsulfonyl)phenylsulfonyl)pyrrolidin-3-yl)-2-oxo-2,3-dihydro-1H-imidazo[4,5-b]pyridin-1-yl)acetic acid] the figure was less than 1000 nM.

Consider `O=C(O)Cn1c(=O)n([C@@H]2CCN(S(=O)(=O)c3ccc(F)cc3Cl)C2)c2ncccc21` [Compound 101, (R)-2-(3-(1-(2-chloro-4-fluorophenylsulfonyl)pyrrolidin-3-yl)-2-oxo-2,3-dihydro-1H-imidazo[4,5-b]pyridin-1-yl)acetic acid], for which the IC50 was less than 1000 nM. Take `O=C(O)Cn1c(=O)n([C@@H]2CCN(S(=O)(=O)c3ccc(Cl)cc3Cl)C2)c2ncccc21` [Compound 102, (R)-2-(3-(1-(2,4-dichlorophenylsulfonyl)pyrrolidin-3-yl)-2-oxo-2,3-dihydro-1H-imidazo[4,5-b]pyridin-1-yl)acetic acid]: the IC50 is less than 1000 nM. With `Cc1ccc(S(=O)(=O)N2CC[C@@H](n3c(=O)n(CC(=O)O)c4cccnc43)C2)c(F)c1` [Compound 103, (R)-2-(3-(1-(2-fluoro-4-methylphenylsulfonyl)pyrrolidin-3-yl)-2-oxo-2,3-dihydro-1H-imidazo[4,5-b]pyridin-1-yl)acetic acid] the figure was less than 1000 nM. `CS(=O)(=O)c1ccccc1S(=O)(=O)NC1CCC(n2c(=O)n(CC(=O)O)c3cccnc32)CC1` (stereo not shown) [Compound 104, 2-(3-(4-(2-(methylsulfonyl)phenylsulfonamido)cyclohexyl)-2-oxo-2,3-dihydro-1H-imidazo[4,5-b]pyridin-1-yl)acetic acid]: the IC50 was in the range of 1000 to 10000 nM. The same measure for `O=C(O)Cn1c(=O)n(C2CCC(NS(=O)(=O)c3ccc(F)cc3Cl)CC2)c2ncccc21` (stereo not shown) [Compound 105, 2-(3-(4-(2-chloro-4-fluorophenylsulfonamido)cyclohexyl)-2-oxo-2,3-dihydro-1H-imidazo[4,5-b]pyridin-1-yl)acetic acid]: 1000 to 10000 nM. With `O=C(O)Cn1c(=O)n(C2CCC(NS(=O)(=O)c3ccc(Cl)cc3Cl)CC2)c2ncccc21` (stereo not shown) [Compound 106, 2-(3-(4-(2,4-dichlorophenylsulfonamido)cyclohexyl)-2-oxo-2,3-dihydro-1H-imidazo[4,5-b]pyridin-1-yl)acetic acid] the figure was 1000 to 10000 nM.

A word on the IC50: it is the midpoint of a concentration-inhibition curve.
